The source of these data is patent publication US9204653B2, “5-fluoro pyrimidine derivatives” (DOW AGROSCIENCES LLC, priority 2008, dated 2015).

Where two headings read alike, the source gives them in different places.

The subject of the experiment is Mycosphaerella graminicola; Anamorph: Septoria tritici; Bayer Code SEPTTR. Put plainly: Leaf blotch of wheat, foliar fungicide treatment, one day protectant (1DP) or three day curative (3DC). The class given is in vivo, Septoria tritici on wheat plants (variety Yuma). Conditions: Zymoseptoria tritici, rating of percent disease control.
[1] abbreviates: 24 h, one day protectant (1DP), read-out: SETTTR 1DP 25 ppm.
The mark [2] stands for this setting: 24 h, one day protectant (1DP), read-out: SEPTTR 1DP 100 ppm.
Where [3] appears, read: 72 h, three day curative (3DC), read-out: SEPTTR 3DC 25 ppm.
[4] abbreviates: 72 h, three day curative (3DC), read-out: SEPTTR 3DC 100 ppm.

As for `CN(/C=N/c1nc(OCc2ccc(F)cc2)ncc1F)Cc1ccccc1` [Compound 292], the pest or weed control at 25 ppm by setting is: under setting [1], 76 to 100%; under setting [3], 76 to 100%. Also, the pest or weed control at 100 ppm runs as follows: under setting [2], 76 to 100%; under setting [4], 76 to 100%.
Consider `O=C(NNc1nc(OCc2ccccc2)ncc1F)c1ccccc1` [Compound 293], for which the pest or weed control at 25 ppm under setting [1] was 0 to 25% and the pest or weed control at 25 ppm under setting [3] lay in the range of 0 to 25%. For the same compound, the pest or weed control at 100 ppm by setting is: under setting [2], 0 to 25%; under setting [4], 0 to 25%.
For the compound `COc1cccc(COc2ncc(F)c(NNC3CCCCC3)n2)c1` [Compound 294], the pest or weed control at 25 ppm lay within 0 to 25% under setting [1] and 0 to 25% under setting [3]. In addition, the pest or weed control at 100 ppm is, setting by setting: under setting [2], 76 to 100%; under setting [4], 76 to 100%.
For `CCOC(=O)COC(=O)Nc1nc(OCc2ccc(F)cc2)ncc1F` [Compound 295], the pest or weed control at 25 ppm by setting is: under setting [1], 76 to 100%; under setting [3], 76 to 100%. Also, the pest or weed control at 100 ppm by setting is: under setting [2], 76 to 100%; under setting [4], 76 to 100%.
For the compound `Cc1cc(Oc2ncc(F)c(N)n2)cc(C)n1` [Compound 296], the pest or weed control at 25 ppm runs as follows: under setting [1], 0 to 25%; under setting [3], 0 to 25%. Moreover, the pest or weed control at 100 ppm runs as follows: under setting [2], 0 to 25%; under setting [4], 26 to 50%.
As for `O=C(Nc1nc(OCc2ccccc2)ncc1F)OCc1ccccc1` [Compound 298], the pest or weed control at 25 ppm under setting [1] was 76 to 100% and the pest or weed control at 25 ppm under setting [3] lay in the range of 76 to 100%. Moreover, the pest or weed control at 100 ppm reads like this: under setting [2], 76 to 100%; under setting [4], 76 to 100%.
For `COc1ccccc1COc1ncc(F)c(N)n1` [Compound 300], the pest or weed control at 25 ppm is 76 to 100% under setting [1] and 76 to 100% under setting [3]. Further, the pest or weed control at 100 ppm was 76 to 100% under setting [2] and 76 to 100% under setting [4].
Turning to `C/C(=N\Nc1nc(OCc2ccc(C)cc2)ncc1F)c1ccc(Cl)nc1` [Compound 301], the pest or weed control at 25 ppm runs as follows: under setting [1], 26 to 50%; under setting [3], 51 to 75%. For the same compound, the pest or weed control at 100 ppm was in the range of 26 to 50% under setting [2] and 76 to 100% under setting [4].
Turning to `CN(C)/C=N/c1nc(OCc2cccc(N)c2)ncc1F` [Compound 303], the pest or weed control at 25 ppm was 26 to 50% under setting [1] and 51 to 75% under setting [3]. Also, the pest or weed control at 100 ppm under setting [2] is 76 to 100% and the pest or weed control at 100 ppm under setting [4] lay within 76 to 100%.
For the compound `COc1cccc(COc2ncc(F)c(NNc3ccccc3)n2)c1` [Compound 306], the pest or weed control at 25 ppm under setting [1] lay in the range of 0 to 25% and the pest or weed control at 25 ppm under setting [3] was in the range of 26 to 50%. The pest or weed control at 100 ppm under setting [2] fell in the range of 76 to 100% and the pest or weed control at 100 ppm under setting [4] fell in the range of 26 to 50%.
On to `Nc1nc(OCc2cn3ccccc3n2)ncc1F` [Compound 307], for which the pest or weed control at 25 ppm is, setting by setting: under setting [1], 76 to 100%; under setting [3], 76 to 100%. Also, the pest or weed control at 100 ppm runs as follows: under setting [2], 76 to 100%; under setting [4], 76 to 100%.
Turning to `Nc1nc(OCc2ccnc(Cl)c2)ncc1F` [Compound 308], the pest or weed control at 25 ppm reads like this: under setting [1], 76 to 100%; under setting [3], 76 to 100%. The pest or weed control at 100 ppm under setting [2] fell in the range of 76 to 100% and the pest or weed control at 100 ppm under setting [4] was 76 to 100%.
Take `COc1ccccc1COc1ncc(F)c(NC(C)=O)n1` [Compound 309]: the pest or weed control at 25 ppm by setting is: under setting [1], 76 to 100%; under setting [3], 76 to 100%. The pest or weed control at 100 ppm under setting [2] fell in the range of 76 to 100% and the pest or weed control at 100 ppm under setting [4] fell in the range of 76 to 100%.
`Nc1nc(ON=C(c2ccccc2)c2ccccc2)ncc1F` [Compound 312]: the pest or weed control at 25 ppm fell in the range of 76 to 100% under setting [1] and 76 to 100% under setting [3]. The pest or weed control at 100 ppm by setting is: under setting [2], 76 to 100%; under setting [4], 76 to 100%.
As for `CCOC(=O)Nc1nc(OCc2cccc(C#N)c2)ncc1F` [Compound 314], the pest or weed control at 25 ppm under setting [1] is 76 to 100% and the pest or weed control at 25 ppm under setting [3] was in the range of 76 to 100%. In addition, the pest or weed control at 100 ppm reads like this: under setting [2], 76 to 100%; under setting [4], 76 to 100%.
Regarding `COCCCOc1ncc(F)c(N)n1` [Compound 315], the pest or weed control at 25 ppm was 51 to 75% under setting [1] and 76 to 100% under setting [3]. Also, the pest or weed control at 100 ppm reads like this: under setting [2], 76 to 100%; under setting [4], 76 to 100%.
Consider `COc1ccccc1COc1ncc(F)c(/N=C2\CCCCN2C)n1` [Compound 317], for which the pest or weed control at 25 ppm was in the range of 51 to 75% under setting [1] and 26 to 50% under setting [3]. Besides, the pest or weed control at 100 ppm under setting [2] lay within 76 to 100% and the pest or weed control at 100 ppm under setting [4] was in the range of 76 to 100%.
Regarding `Cn1nc(-c2ccccc2)nc1-c1ccccc1COc1ncc(F)c(N)n1` [Compound 320], the pest or weed control at 25 ppm under setting [1] fell in the range of 0 to 25% and the pest or weed control at 25 ppm under setting [3] is 26 to 50%. The pest or weed control at 100 ppm lay in the range of 0 to 25% under setting [2] and 26 to 50% under setting [4].
Consider `COCCCOc1ncc(F)c(NC(C)=O)n1` [Compound 321], for which the pest or weed control at 25 ppm lay in the range of 76 to 100% under setting [1] and 76 to 100% under setting [3]. In addition, the pest or weed control at 100 ppm was 76 to 100% under setting [2] and 76 to 100% under setting [4].
Regarding `Oc1ncc(F)c(N/N=C/c2ccccc2Cl)n1` [Compound 322], the pest or weed control at 25 ppm was in the range of 0 to 25% under setting [1] and 0 to 25% under setting [3]. The pest or weed control at 100 ppm by setting is: under setting [2], 0 to 25%; under setting [4], 0 to 25%.
`Cc1ccc(COc2ncc(F)c(N)n2)c(C)c1` [Compound 323]: the pest or weed control at 25 ppm by setting is: under setting [1], 76 to 100%; under setting [3], 76 to 100%. Also, the pest or weed control at 100 ppm was in the range of 76 to 100% under setting [2] and 76 to 100% under setting [4].
Regarding `O=[N+]([O-])c1ccccc1SNc1nc(OCc2ccc(F)c(F)c2)ncc1F` [Compound 324], the pest or weed control at 25 ppm under setting [1] lay within 76 to 100% and the pest or weed control at 25 ppm under setting [3] lay within 0 to 25%. Besides, the pest or weed control at 100 ppm runs as follows: under setting [2], 76 to 100%; under setting [4], 26 to 50%.
As for `Cc1ccc(COc2ncc(F)c(NO)n2)cc1` [Compound 325], the pest or weed control at 25 ppm under setting [1] was 76 to 100% and the pest or weed control at 25 ppm under setting [3] was 76 to 100%. Besides, the pest or weed control at 100 ppm reads like this: under setting [2], 76 to 100%; under setting [4], 76 to 100%.
Regarding `CN1CCCC/C1=N\c1nc(OCc2cccc(F)c2)ncc1F` [Compound 326], the pest or weed control at 25 ppm fell in the range of 76 to 100% under setting [1] and 51 to 75% under setting [3]. The pest or weed control at 100 ppm under setting [2] was 76 to 100% and the pest or weed control at 100 ppm under setting [4] fell in the range of 76 to 100%.
`COc1cccc(COc2ncc(F)c(/N=C3\CCCCN3C)n2)c1` [Compound 327]: the pest or weed control at 25 ppm by setting is: under setting [1], 51 to 75%; under setting [3], 51 to 75%. Also, the pest or weed control at 100 ppm under setting [2] is 76 to 100% and the pest or weed control at 100 ppm under setting [4] was 76 to 100%.
For the compound `CCOc1ccccc1COc1ncc(F)c(N)n1` [Compound 328], the pest or weed control at 25 ppm is, setting by setting: under setting [1], 76 to 100%; under setting [3], 76 to 100%. For the same compound, the pest or weed control at 100 ppm lay within 76 to 100% under setting [2] and 76 to 100% under setting [4].
Take `COc1ccccc1COc1ncc(F)c(NC(=O)Nc2ccccc2F)n1` [Compound 329]: the pest or weed control at 25 ppm reads like this: under setting [1], 0 to 25%; under setting [3], 0 to 25%. The pest or weed control at 100 ppm under setting [2] fell in the range of 0 to 25% and the pest or weed control at 100 ppm under setting [4] lay within 0 to 25%.
In the case of `Fc1cnc(OCc2ccccc2)nc1NCOCc1ccccc1` [Compound 330], the pest or weed control at 25 ppm was in the range of 0 to 25% under setting [1] and 0 to 25% under setting [3]. Further, the pest or weed control at 100 ppm runs as follows: under setting [2], 76 to 100%; under setting [4], 26 to 50%.
As for `CCOCNc1nc(OCc2ccccc2OC)ncc1F` [Compound 331], the pest or weed control at 25 ppm under setting [1] lay within 76 to 100% and the pest or weed control at 25 ppm under setting [3] lay within 76 to 100%. The pest or weed control at 100 ppm runs as follows: under setting [2], 76 to 100%; under setting [4], 76 to 100%.
Turning to `O=C(Nc1ccccc1)Nc1nc(OCc2cccc(F)c2)ncc1F` [Compound 332], the pest or weed control at 25 ppm was 76 to 100% under setting [1] and 51 to 75% under setting [3]. Also, the pest or weed control at 100 ppm lay within 76 to 100% under setting [2] and 26 to 50% under setting [4].
On to `COc1cccc(COc2ncc(F)c(-n3ccnc3)n2)c1` [Compound 334], for which the pest or weed control at 25 ppm is 76 to 100% under setting [1] and 76 to 100% under setting [3]. Also, the pest or weed control at 100 ppm by setting is: under setting [2], 76 to 100%; under setting [4], 76 to 100%.
As to `CC(Oc1ncc(F)c(/N=C/N2CCOCC2)n1)c1ccc(F)cc1` (stereo not drawn) [Compound 338], the pest or weed control at 25 ppm fell in the range of 76 to 100% under setting [1] and 76 to 100% under setting [3]. Moreover, the pest or weed control at 100 ppm is, setting by setting: under setting [2], 76 to 100%; under setting [4], 76 to 100%.
Take `CNc1nc(OCc2ccc(OC)cc2)ncc1F` [Compound 339]: the pest or weed control at 25 ppm fell in the range of 0 to 25% under setting [1] and 26 to 50% under setting [3]. The pest or weed control at 100 ppm was 26 to 50% under setting [2] and 51 to 75% under setting [4].
`CCN(N)c1nc(OCc2cccc(OC)c2)ncc1F` [Compound 340]: the pest or weed control at 25 ppm runs as follows: under setting [1], 0 to 25%; under setting [3], 26 to 50%. In addition, the pest or weed control at 100 ppm is 76 to 100% under setting [2] and 76 to 100% under setting [4].
For `CCOC(=O)CCC(=O)NNc1nc(OCc2ccccc2)ncc1F` [Compound 344], the pest or weed control at 25 ppm reads like this: under setting [1], 26 to 50%; under setting [3], 0 to 25%. The pest or weed control at 100 ppm reads like this: under setting [2], 26 to 50%; under setting [4], 26 to 50%.
For `CC[Si](CC)(CC)Nc1nc(OCc2cccc(F)c2)ncc1F` [Compound 346], the pest or weed control at 25 ppm runs as follows: under setting [1], 76 to 100%; under setting [3], 76 to 100%. Moreover, the pest or weed control at 100 ppm fell in the range of 76 to 100% under setting [2] and 76 to 100% under setting [4].
